Assays:
RD-ES tumors = assay: Immunoblotting of RD-ES tumor extracts; format: in vivo, SCID mice
Experimental: FIGS. 13A-B: A GR antagonist and a cortisol-lowering drug induce markers of cell death in animal models of Ewing's sarcoma. (A) RD-ES tumors presented in FIG. 6A were extracted and analyzed using immunoblotting and the indicated antibodies. Note that tumors from three different mice per group were analyzed. (B) Whole extracts prepared from the tumors presented in FIG. 6D were analyzed using immunoblotting and the indicated antibodies. Note that tumors from three different mice per group were analyzed.
ES animal model studies: All animal experiments were approved by the Weizmann Institute's Animal Care and Use Committee. RD-ES cells and A673 cells (2.5×10^6) were inoculated subcutaneously in the right legs of female SCID mice (6 weeks old). Tumor growth was monitored once every 3 days using a caliper. […] Mice were euthanized when tumor size reached 800-900 mm^3. For metastasis assays, luciferase-labeled TC-71 cells (10^6) were injected orthotopically into the tibia of female SCID mice. Once the primary tumor reached the allowed size limit, we excised the lungs and examined metastases using luciferase bioluminescence imaging.

GR and PU.1 = GR and PU.1 (Homo sapiens, UniProt P04150); settings: combination of DEX (1 μM) and RU486 (1 μM)
Experimental: (§1) (A) The scheme presents the full length Gaussia luciferase protein, along with either the amino-terminal segment (Gluc1), which was fused to an ETS family transcription factor, or the carboxyl terminal segment (Gluc2), which was fused to GR. Amino acid numbers are indicated. cDNAs encoding most members of the ETS family (16 members altogether) were cloned downstream to Gluc1. […] (B) HEK-293T cells (6×10^3) were seeded in 96-well plates. On the next day, cells were transfected with combinations of the Gluc1 plasmid, encoding a fused ETS family member, and the Gluc2 plasmid encoding a fused full-length GR. […] Cells were then lysed and luminescence was determined in biological triplicates. […] (D and E) HEK-293T cells were seeded in 100-mm dishes. Once they reached sub-maximal density (70%), cells were starved overnight for serum factors. […] Cell extracts were then processed for co-immunoprecipitation assays, in which the endogenous FLI1 or ERG protein was immunoprecipitated using a specific antibody, and immunoblotting was performed using an antibody against GR. EB, empty beads; C, solvent control. Images shown are representative of three biological replicates.
(§2) Protein-fragment complementation assays (PCA): PCA was performed as previously described.

GR and ETV4 = GR and ETV4 (Homo sapiens, UniProt P04150); settings: combination of DEX (1 μM) and RU486 (1 μM)
Experimental: as §1, §2

A673 cells = assay: Apoptosis assay (annexinV/7-AAD); format: cell-based; settings: RU486 10 or 20 μM, 48 hours
Experimental: FIGS. 12A-F: Inhibition of GR activity decreases growth and survival of Ewing's sarcoma cells. […] (B) Increasing concentrations of […], a non-steroidal antagonist of GR [54], were incubated with A673 cells as in A and the MTT assay was performed in triplicates. *, p<0.05. […] Note that the abundance of the endogenous form of FLI1 is much weaker than that of EWS-FLI1. […] MTT assays were performed after 48 hours of treatment. The assay was repeated twice in quadruplets. **, p<0.01, ***, p<0.001. (E) A673 cells were seeded in 100-mm dishes. […] Shown are results of an apoptosis assay performed using an annexinV/7-AAD kit (BioLegend, Inc.). Quantification of the fractions of early and late apoptotic cells is shown in bar plots. The experiment was repeated twice. (F) The indicated ES cells were sparsely seeded in 6-well plates. […] Ten days later, cells were fixed and stained with crystal violet to visualize emerging colonies. Photos are shown along with bar plots showing the quantification of colonies in 5 non-overlapping microscope fields. The experiment was repeated twice. *, p≤0.05; **, p≤0.001. Apoptosis assays: Assays were performed using the FITC Annexin V Apoptosis Detection Kit with 7-AAD (from BioLegend) and analyzed using a BD FACSAria Fusion instrument controlled by BD FACS Diva software v8.0.1 (BD Biosciences).

RD-ES xenograft = RD-ES xenograft tumor growth and KI67 staining; format: in vivo, SCID mice; settings: 1 mg/kg daily
Excerpt: FIGS. 6A-E. A GR antagonist and a cortisol-lowering drug impede growth of human xenograft models of Ewing's sarcoma. (A) RD-ES cells (2×10^6) were implanted subcutaneously in the right flank of SCID mice. Once tumors reached an approximate size of 150 mm^3, animals were randomized into three groups (n=10). […] The means of tumor volumes (+SEM) are shown. […] (B) Shown are representative images of immunofluorescent staining for KI67 in paraffin-embedded sections of tumors from A, using an antibody against KI67. Scale bars, 100 μm. Also shown is the scatter plot depicting quantification of KI67 staining in randomly selected 4 fields of a representative tumor from each group. […] (C and D) A673 cells (2×10^6) were implanted in female SCID mice. Once tumors reached the size of 150 mm^3, animals were randomized into two groups (n=9). Each group was daily treated with either vehicle, or Metyrapone (25 mg/kg) and tumorigenic growth was monitored. Actual tumor volumes (±SEM) are presented. Also shown are tumors harvested from each group of animals; **p<0.001. […] Luminescence was quantified and presented in a bar graph.
ES animal model studies: All animal experiments were approved by the Weizmann Institute's Animal Care and Use Committee. […] Tumor growth was monitored once every 3 days using a caliper. […]

CHLA9 and RD-ES cells = assay: Transwell migration assay of ES cells; format: cell-based; settings: DEX 1 μM, RU486 1 μM, D06 10 μM; 20 hours
Experimental: (A) CHLA9 cells were seeded in 100-mm dishes. Once they reached sub-maximal density, cells were starved overnight for serum factors. […] Cells were then extracted and the lysates were processed for co-immunoprecipitation assays using an antibody against GR followed by immunobloting that used an antibody against EWS. The image shown is representative of 3 biological replicates. Signals were quantified and normalized (see numbers below each lane). EB, empty beads. […] (C-D) CHLA9 cells were seeded on the upper faces of either Transwell migration chambers or Matrigel-coated invasion chambers, and further incubated for 20 hours in full medium. Control siRNAs or siRNAs specific to either GR or EWS-FLI1 were added to cells 24 hours prior to seeding, and both cell migration and invasion were measured 20 hours later. […] Cells that reached the lower faces of the chambers were fixed and stained. Shown are representative images of stained cells. The bar plots show quantification, using ImageJ, of the area covered by cells. *, p≤0.05, **, p≤0.005. Bars, 500 μm. […] The bar plots show quantification, using ImageJ, of the area covered by cells. *, p≤0.05, **, p≤0.005. […]
(A) RD-ES cells were seeded in 100-mm dishes. […] Cell migration/invasion was determined 20 hours later.

[1] = test system: glucocorticoid response element (GRE); settings: DEX and RU486 each at 100 nM, 24 hours
Experimental: HEK-293T cells (1.2×10^4) were seeded in 48-well plates. […] In addition, cells were co-transfected with increasing amounts of a GR expression vector (A), a FLI1-encoding vector (B) or with a combination of both a FLI1 vector and a vector encoding GR, either wild type (C) or a mutant receptor (GRdim−, panel D). Luciferase activity was determined, in biological triplicates, 48 hours later and presented in bar plots. Cells that were pre-transfected with the reporter plasmid were used for normalization. *, p≤0.05; ***, p≤0.001. […] This was followed by cell lysis and determination of luciferase activity in biological triplicates.
Luciferase-reporter assays: Cells were co-transfected with a luciferase plasmid containing the consensus glucocorticoid response element (GRE) along with pGL3-Control (Promega, Madison, Wis.). Luciferase activity was determined using the dual-luciferase reporter assay system (Promega). Firefly luciferase luminescence values were normalized to Renilla luminescence.

GR and PU.1, sequence (P04150 whole entry, the tested form may be a part): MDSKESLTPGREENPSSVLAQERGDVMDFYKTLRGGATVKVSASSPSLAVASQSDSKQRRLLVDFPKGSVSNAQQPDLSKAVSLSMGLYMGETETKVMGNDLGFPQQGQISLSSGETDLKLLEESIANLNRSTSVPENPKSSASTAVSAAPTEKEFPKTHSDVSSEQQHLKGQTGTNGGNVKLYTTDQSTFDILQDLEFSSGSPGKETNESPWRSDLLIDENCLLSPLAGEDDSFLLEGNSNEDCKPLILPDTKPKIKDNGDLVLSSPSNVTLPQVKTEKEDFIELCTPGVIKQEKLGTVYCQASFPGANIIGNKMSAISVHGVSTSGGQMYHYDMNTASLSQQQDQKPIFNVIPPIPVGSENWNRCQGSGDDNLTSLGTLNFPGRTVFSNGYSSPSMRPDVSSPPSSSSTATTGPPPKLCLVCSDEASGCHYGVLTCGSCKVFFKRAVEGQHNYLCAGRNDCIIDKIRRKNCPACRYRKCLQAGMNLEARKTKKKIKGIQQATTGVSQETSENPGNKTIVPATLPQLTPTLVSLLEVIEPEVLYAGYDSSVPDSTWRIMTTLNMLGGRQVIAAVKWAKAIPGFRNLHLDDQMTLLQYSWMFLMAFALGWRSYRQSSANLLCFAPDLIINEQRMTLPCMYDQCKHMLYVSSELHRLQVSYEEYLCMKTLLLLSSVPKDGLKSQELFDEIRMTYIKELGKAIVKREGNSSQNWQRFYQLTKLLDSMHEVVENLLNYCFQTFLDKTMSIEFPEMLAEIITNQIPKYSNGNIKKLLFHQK
GR and ETV4, sequence (P04150 whole entry): as the sequence (P04150 whole entry, the tested form may be a part) above

For CC#C[C@]1(O)CC[C@H]2[C@@H]3CCC4=CC(=O)CCC4=C3[C@@H](c3ccc(N(C)C)cc3)C[C@@]21C [RU486, Mifepristone], the “AKT survival pathway in tumors” value (RD-ES tumors) was “inhibited”, the “LC3B-I abundance in tumors” value (RD-ES tumors) was “increased abundance” and the “activation of caspase 3 in tumors” value (RD-ES tumors) was “no clear activation”. The “larger isoform of BIM in tumors” value (RD-ES tumors) was “up-regulation”, the “p21 abundance in tumors” value (RD-ES tumors; three mice per group) was “increased abundance” and the “p27 abundance in tumors” value (RD-ES tumors; three mice per group) was “increased abundance”. For the same compound, the “effect on DEX-induced physical interaction between GR and PU.1 (PCA)” value (GR and PU.1) was “significantly inhibited”, the “effect on DEX-induced physical interaction between GR and ETV4 (PCA)” value (GR and ETV4) was “only a trend was noted” and the “early apoptosis (fraction of cells)” value (A673 cells; DEX 1 μM) was “increased”. The “late apoptosis (fraction of cells)” value (A673 cells) was “increased”, the tumor growth (RD-ES xenograft) was “significantly slower tumor growth” and the “KI67 staining of tumor sections (proliferation)” value (RD-ES xenograft; relative to control group) was “slower proliferation rates”. The cell migration (CHLA9 and RD-ES cells) was “inhibited” and the “effect of co-treatment on DEX-induced GRE activity” value [1] was “inhibitory”.
